How the values were obtained:
[1] = Inhibition of LPS-induced NO production in mouse BV-2 cells; format: functional, cell-based
BV-2 = experiment: Cytotoxicity against mouse BV-2 cells; format: cell-based

Row | Structure (SMILES) | IC50 [1] [µM] | Activity (BV-2)
1 | CC(=O)O[C@H]1CCC(C)(C)[C@@H](CO)[C@@]12COC(=O)[C@@]13C[C@@H](CC[C@H]12)[C@@H](C)C3=O | > 100 | Non-Toxic
2 | C=C1[C@@H]2CC[C@H]3[C@]45CCCC(C)(C)[C@H]4[C@H](OC(C)=O)[C@@](O)(OC5)[C@]3(C2)[C@@H]1OC(C)=O | 26.2 | Non-Toxic
3 | CC(=O)O[C@H]1[C@](O)(CO)[C@@H]2CC[C@H]3[C@]45CCCC(C)(C)[C@H]4[C@H](OC(C)=O)[C@@](O)(OC5)[C@]13C2 | 44.1 | Non-Toxic
4 | CC(=O)O[C@@H]1[C@@]2(CO2)[C@@H]2CC[C@H]3[C@]45CCCC(C)(C)[C@H]4[C@H](OC(C)=O)[C@@](O)(OC5)[C@]13C2 | > 100 | Non-Toxic
5 | CC(=O)O[C@H]1[C@]2(CO2)[C@@H]2CC[C@H]3[C@]45CCCC(C)(C)[C@H]4[C@H](OC(C)=O)[C@@](O)(OC5)[C@@]31C2 | 15.6 | Non-Toxic
6 | CC(=O)O[C@@H]1[C@@](O)(CO)[C@@H]2CC[C@H]3[C@]45CCCC(C)(C)[C@H]4[C@H](OC(C)=O)[C@@](O)(OC5)[C@]13C2 | 40.1 | Non-Toxic
7 | C=C1[C@@H]2CC[C@H]3[C@]45CCCC(C)(C)[C@H]4[C@H](O)[C@@](O)(OC5)[C@]3(C2)[C@@H]1O | > 60 | Non-Toxic

More lines, main results first:

Row | IC50 [1] [µM] | Structure (SMILES) | Activity (BV-2)
8 | > 100 | C=C1[C@@H](OC(C)=O)[C@]23[C@H](O)[C@H]1CC[C@H]2[C@@]12CO[C@]3(O)[C@@H](O)[C@@H]1C(C)(C)CC[C@@H]2OC(C)=O | Non-Toxic
9 | > 100 | CC(=O)O[C@@H]1[C@@]2(CO2)[C@@H]2CC[C@H]3[C@]45CCCC(C)(C)[C@H]4[C@H](OC(C)=O)[C@@](O)(OC5)[C@]13[C@@H]2O | Non-Toxic
10 | 7.3 | C=C1[C@@H]2CC[C@H]3[C@]4(C)CCCC(C)(C)[C@H]4[C@H](OC(C)=O)C(=O)[C@]3(C2)[C@@H]1OC(C)=O | Non-Toxic
11 | 3.6 | CSC(=N)N | Non-Toxic

Reference: ChEMBL document CHEMBL4699529, “Anti-Inflammatory ent-Kaurane Diterpenoids from Isodon serra” (J Nat Prod, 2020)
